Data as given in patent US12584113B2, “Method of cell culture” (Pfizer Inc., priority 2014, dated 2026).

System: GS-CHO cells
Assay: Spike-in of single purified metabolites into Medium A, growth of GS-CHO cells monitored 5 or 6 days
Format: cell-based, Chinese hamster
Protocol: GS-CHO cells producing a recombinant antibody were inoculated at low viable cell densities (0.1E6 cells/mL) in various conditions in 5 ml volume, 6-well plate cultures. […] The pH of the Medium A, spiked-in with any one of the nine metabolites or any combination of the nine metabolites, was adjusted to 7 before inoculating the cells (on day 0).
For indolelactate, the stock solution (500 mM) was prepared in DMSO. […] All the conditions were run in duplicates or triplicates. Growth of the cells in above described conditions was monitored for 5 or 6 days.

[1] = metabolite alone at concentrations higher than 0.5 mM or 1 mM

In the case of `N[C@@H](CCS)C(=O)O` [Homocysteine], the “effect on growth of cells” value [1] is reported as “Modest inhibition of growth”.

In the case of `O=C(O)C(O)Cc1c[nH]c2ccccc12` (stereo not shown) [Indolelactate], the “effect on growth of cells” value (metabolite alone at concentrations of 3 mM or below, DMSO control included) is reported as “little or no effect on growth of cells”.

For `CCC(O)C(=O)O` (stereo not shown) [2-hydroxybutyric acid], the “effect on growth of cells” value [1] was “Modest inhibition of growth”.

`O=C(O)c1c[nH]c2ccccc12` [Indolecarboxylic acid] was tested, and the “effect on growth of cells” value (metabolite alone at concentrations of 1 mM or lower) was “potent negative effect on growth of cells”.

Phenyllactate [Phenyllactate (PLA)] was tested, and the “effect on growth of cells” value (metabolite alone at 1 mM concentration) was “mild effect on growth of cells”.

For `O=C(O)C(O)Cc1ccc(O)cc1` (stereo not shown) [3-(4-hydroxyphenyl)lactate], the “effect on growth of cells” value [1] was “Modest inhibition of growth”.

For `O=CO` [Formate], the “effect on growth of cells” value (metabolite alone at concentrations 2 mM and beyond) was “negative effect on growth”.
